Experimental data published in publication PMC7507806 (ACS Pharmacology & Translational Science, 2020).
Where two headings read alike, the source gives them in different places. Non-standard residues stand in square brackets, D forms with d. Residues, ends and D or L forms follow the SMILES beside them. *: point of attachment. Nva = CCC[C@H](N)C(=O)O; Cbz = O=C(OCc1ccccc1)*

What was measured:
[1] = test system: SARS-CoV-2 (USA_WA1/2020); test: SARS-CoV-2 cytopathic effect; assay type: cell-based; details: Vero E6 cells; for EC50: read-out: SARS-CoV-2 CPE EC50
Vero E6 cells = details: for CC50: read-out: Vero E6 cytotoxicity CC50
SARS-CoV-2 3CL^pro = SARS-CoV-2 3CL^pro (Severe acute respiratory syndrome coronavirus 2, UniProt P0DTD1); assay type: biochemical; details: for IC50: read-out: 3CL^pro inhibition IC50
SARS-CoV-2 virus = details: cited from earlier work
[2] = Table 2, compounds with partial fluorescence quenching effect

Row | Compound | Vero E6 cytotoxicity efficacy (Vero E6 cells; Table 2 quenching compounds) [%] | 3CL^pro inhibition max resp (SARS-CoV-2 3CL^pro; Table 1 compounds) [%] | Vero E6 cytotoxicity efficacy (Vero E6 cells; no virus, Table 1 compounds) [%] | CC50 (Vero E6 cells; no virus, Table 1 compounds) [µM] | SARS-CoV-2 CPE efficacy ([1]; 72 h, Table 1 compounds) [%] | EC50 ([1]; 72 h, Table 1 compounds) [µM] | also measured
1 | Cc1cc(O[C@@H](CCC(F)(F)F)c2ccc(C(=O)NCCC(=O)O)cc2)cc(C)c1-c1ccc(C(C)(C)C)cc1 [adomeglivant] | 36.97 |  |  |  |  |  | SARS-CoV-2 CPE efficacy ([1]; Table 2 quenching compounds): 49.2%
2 | O=C1Nc2ccc(I)cc2/C1=C/c1cc(Br)c(O)c(Br)c1 [GW5074] | 20.1 |  |  |  |  |  | 3CL^pro inhibition max resp (SARS-CoV-2 3CL^pro; [2]): 63.16%; CC50 (Vero E6 cells; Table 2 quenching compounds): 11.2 µM
3 | O.O=C(OC[C@H]1O[C@@H](OC(=O)c2cc(O)c(O)c(O)c2)[C@H](OC(=O)c2cc(O)c(O)c(O)c2)[C@@H](OC(=O)c2cc(O)c(O)c(O)c2)[C@@H]1OC(=O)c1cc(O)c(O)c(O)c1)c1cc(O)c(O)c(O)c1 [penta-O-galloyl-β-D-glucose hydrate] |  | 109.94 | 80.28 | 11.2 |  |  | 
4 | O=C1C(Cl)=C(NCCN2CCOCC2)C(=O)c2ncccc21 [DA-3003–1] |  |  | 112 | 7.74 | 53.77 | 4.47 | activity in CPE assay [1]: exhibited CPE activity
5 | CSCC[C@@H](C=O)NC(=O)[C@H](CC(C)C)NC(=O)[C@H](CC(C)C)NC(C)=O [calpain inhibitor II] (Ac-Leu-Leu-Met-aldehyde) |  |  |  |  |  |  | activity in CPE and viral yield reduction assays (SARS-CoV-2 virus): active in both CPE and viral yield reduction assays
6 | CC(C)(C)NC(=O)N[C@H](C(=O)N1C[C@H]2[C@@H]([C@H]1C(=O)NC(CC1CCC1)C(=O)C(N)=O)C2(C)C)C(C)(C)C (stereo partly drawn) [Boceprevir] |  |  |  |  |  |  | activity in CPE and viral yield reduction assays (SARS-CoV-2 virus): active in both CPE and viral yield reduction assays; EC50 (SARS-CoV-2 virus; read-out: EC50 against SARS-CoV-2 virus infection in the CPE assay): 1.9 µM
7 | Cc1cc(SCc2sc(-c3ccc(C(F)(F)F)c(F)c3)nc2C)ccc1OCC(=O)O [GW-0742] |  | 126.23 | 0 | > 20 | 0 | > 20 | 
8 | O=C1c2ccccc2-[n+]2ccc3c([nH]c4ccccc43)c21 [fascaplysin] |  | 63.44 | 99.28 |  | 0 |  | 
9 | CCCCCCCc1ccc(CCc2cccc(O)c2C(=O)O)cc1 [MG-149] | 23.42 |  |  |  |  |  | 
10 | CCC[C@@H](C=O)NC(=O)[C@H](CC(C)C)NC(=O)[C@H](CC(C)C)NC(=O)OCc1ccccc1 [MG-115] (Cbz-Leu-Leu-[Nva]-aldehyde) |  | 74.89 | 115.48 | 1.13 |  |  | 
11 | COCCn1c2c([n+](Cc3cnccn3)c1C)C(=O)c1ccccc1C2=O [sepantronium bromide] |  | 61.79 | 20.12 |  | 0 |  | 
12 | vitamin B12 |  |  | 0 | > 20 | 0 | > 20 | 3CL^pro inhibition max resp (SARS-CoV-2 3CL^pro): 71.06%
13 | Cc1ccc(C(=O)Nc2ccc(S(=O)(=O)O)c3cc(S(=O)(=O)O)cc(S(=O)(=O)O)c23)cc1NC(=O)c1cccc(NC(=O)Nc2cccc(C(=O)Nc3cc(C(=O)Nc4ccc(S(=O)(=O)O)c5cc(S(=O)(=O)O)cc(S(=O)(=O)O)c45)ccc3C)c2)c1 [suramin sodium] |  | 99.49 | 0 |  | 0 |  | activity in CPE assay [1]: neither effective in CPE assay; cytotoxicity to Vero E6 cells (Vero E6 cells; African green monkey): nor cytotoxic to Vero E6 cells
14 | Cc1[nH]c(/C=C2\C(=O)Nc3cc(-c4ccccc4)ccc32)c(C)c1CCC(=O)O [SU 16f] |  |  | 23.57 | 7.94 | 0 | > 20 | 
15 | O=C(O)Cc1cccc(OCCCN(Cc2cccc(C(F)(F)F)c2Cl)CC(c2ccccc2)c2ccccc2)c1 [GSK-3965] | 82.34 |  |  |  |  |  | 3CL^pro inhibition max resp (SARS-CoV-2 3CL^pro): 108.24%; IC50 (SARS-CoV-2 3CL^pro): 21.5 µM; SARS-CoV-2 CPE efficacy ([1]; Table 2 quenching compounds): 22.51%; CC50 (Vero E6 cells; Table 2 quenching compounds): 14.1 µM
16 | COc1ccc2cc(-c3cc(-c4cc(Cl)cc(Cl)c4)nn3[C@@H](C)c3ccc(C(=O)NCCC(=O)O)cc3)ccc2c1 [MK 0893] |  | 95.77 | 80.04 |  | 23.89 |  | 
17 | CC#C[C@@H](CC(=O)O)c1ccc(OCc2cccc(-c3ccc(C(F)(F)F)cc3)c2)cc1 [AMG-837] | 20.2 |  |  |  |  |  | 3CL^pro inhibition max resp (SARS-CoV-2 3CL^pro; [2]): 65.79%; SARS-CoV-2 CPE efficacy ([1]; Table 2 quenching compounds): 106.31%
18 | CN[C@H](CC(C)C)C(=O)N[C@H]1C(=O)N[C@@H](CC(N)=O)C(=O)N[C@H]2C(=O)N[C@H]3C(=O)N[C@H](C(=O)N[C@H](C(=O)O)c4cc(O)cc(O)c4-c4cc3ccc4O)[C@H](O[C@H]3C[C@](C)(N)[C@@H](O)[C@H](C)O3)c3ccc(c(Cl)c3)Oc3cc2cc(c3O[C@@H]2O[C@H](CO)[C@@H](O)[C@H](O)[C@H]2O[C@H]2C[C@](C)(NCc3ccc(-c4ccc(Cl)cc4)cc3)[C@@H](O)[C@H](C)O2)Oc2ccc(cc2Cl)[C@H]1O.O=P(O)(O)O.O=P(O)(O)O [oritavancin (diphosphate)] |  | 93.29 | 23.51 | 14.1 | 0 | > 20 | 
19 | Oc1c(Cl)cc(Cl)c(Cl)c1Cc1c(O)c(Cl)cc(Cl)c1Cl [hexachlorophene] | 63.02 |  |  |  |  |  | 
20 | CC1(C)OC2=C(C(=O)c3ccccc3C2=O)[C@H](NCc2ccccc2)[C@@H]1O [CAY-10581] |  |  | 0 | > 20 | 0 | > 20 | 
21 | CCCCCCCCCCCCCCCc1cccc(O)c1C(=O)O [anacardic acid] | 72.92 |  |  |  |  |  | 3CL^pro inhibition max resp (SARS-CoV-2 3CL^pro; [2]): 105.9%; SARS-CoV-2 CPE efficacy ([1]; Table 2 quenching compounds): 89.62%; EC50 ([1]; Table 2 quenching compounds): 3.98 µM
22 | C/C1=C2/[N-][C@H]([C@H](CC(N)=O)[C@@]2(C)CCC(=O)NC[C@@H](C)OP(=O)([O-])O[C@H]2[C@@H](O)[C@@H](n3cnc4cc(C)c(C)cc43)O[C@@H]2CO)[C@]2(C)N=C(/C(C)=C3N=C(/C=C4N=C1[C@@H](CCC(N)=O)C\4(C)C)[C@@H](CCC(N)=O)[C@]\3(C)CC(N)=O)[C@@H](CCC(N)=O)[C@]2(C)CC(N)=O.[Co+3].[OH-] [hydroxocobalamin] |  | 89.56 | 0 | > 20 | 0 | > 20 | activity in CPE assay [1]: neither effective in CPE assay; cytotoxicity to Vero E6 cells (Vero E6 cells): nor cytotoxic to Vero E6 cells
23 | O=C(O)c1ccc(N2C(=O)/C(=C\c3ccc(-c4ccc([N+](=O)[O-])cc4)o3)C=C2c2ccccc2)cc1 [4E1RCat] |  | 76.33 | 0 | > 20 | 0 | > 20 | IC50 (SARS-CoV-2 3CL^pro): 18.3 µM
24 | O=C(Nc1cc(C(F)(F)F)cc(C(F)(F)F)c1)c1cnc(Cl)nc1C(F)(F)F [SP 100030] |  |  | 0 | > 20 | 0 | > 20 | 
25 | O=C1C(SCCO)=C(SCCO)C(=O)c2ccccc21 [NSC 95397] |  | 98.7 | 111.33 | 14.1 | 0 | > 20 | 
26 | Brc1c(Br)c(Br)c2n[nH]nc2c1Br [TBB] |  | 77.96 | 80.93 | 8.91 |  |  | 
27 | CC1(C)CCC2=C(O1)c1ccccc1C(=O)C2=O [beta-lapachone] |  | 60.88 | 15.06 |  | 0 |  | 
28 | CC1=NN(c2ccc(C)c(C)c2)C(=O)/C1=N\Nc1cccc(-c2cccc(C(=O)O)c2)c1O [eltrombopag olamine] | 68.67 |  |  |  |  |  | SARS-CoV-2 CPE efficacy ([1]; Table 2 quenching compounds): 74.39%
29 | CC(C)c1ccc2c(c1)c(SC(C)(C)C)c(CC(C)(C)C(=O)O)n2Cc1ccc(Cl)cc1 [MK-886] | 40.83 |  |  |  |  |  | 3CL^pro inhibition max resp (SARS-CoV-2 3CL^pro; [2]): 109.11%; CC50 (Vero E6 cells; Table 2 quenching compounds): 14.1 µM
30 | CCCCCCCCCCCCCCCCC(C(=O)O)C(O)(CC(=O)O)C(=O)O (stereo not drawn) [agaric acid] |  | 110.16 | 0 | > 20 | 0 | > 20 | 
